Patent US5302700A, “Radiohalogenation conjugate technology” (Duke University, priority 1988, dated 1994)

Legend:
[1] = Whole body clearance of INA and iodide (FIG. 1); assay type: in vivo, mice; settings: vs iodide
Description: (§1) The method of choice for comparing the pharmacokinetics of two radioiodinated products (or two samples of the same compound, each sample radioiodinated using a different method) is to administer both to the same group of animals, labeling the first with ^125 I and the second with ^131 I. By performing "paired-label" experiments, one can correct for systematic errors such as incomplete thyroid sampling (less than 10 mg in a mouse) which could make […] comparisons difficult.
(§2) In the first paired-label study, groups of mice were injected with both [^131 ]iodide and 5-^125 I]iodonicotinic acid (hereinafter INA), the labeled substrate which is attached to proteins in the SPC procedure.
One approach for decreasing the retention of a nuclide in normal tissues following the administration of labeled antibodies is to couple the isotope in a chemical form which will be excreted rapidly after antibody catabolism. Degradation of antibodies labeled using the SPC method should result in the production of 5-iodonicotinic acid (INA).

[2] = Paired-label study: thyroid and stomach uptake of [125I]INA and [131I]iodide in mice; assay type: in vivo
From the text: When radioiodine is released from proteins following in vivo administration, loss of label occurs (dehalogenation). Since free iodide is taken up avidly by the thyroid and, at early time points, localizes in the stomach, uptake of radioiodine by these tissues is often used as an indicator of dehalogenation in vivo.
as §1, §2

[3] = background; cited from earlier work
[4] = aqueous solution; background; cited from earlier work

| whole body clearance compared with iodide [1] | thyroid uptake of 125I (INA), times lower than 131I (iodide) ([2]; thyroid, 125I vs 131I) | SMILES | dehalogenation in vivo of INA template [2] | Stomach uptake ([2]; 1 hr after injection) | Thyroid uptake ([2]; 1 hr after injection) | Stomach uptake ([2]; 2 hr after injection) | Thyroid uptake ([2]; 2 hr after injection) | Stomach uptake ([2]; 4 hr after injection) | Thyroid uptake ([2]; 4 hr after injection) | Stomach uptake ([2]; 6 hr after injection) | Thyroid uptake ([2]; 6 hr after injection) | Stomach uptake ([2]; 24 hr after injection) | Thyroid uptake ([2]; 24 hr after injection) | percentages of the injected dose localizing in thyroid and, at early time points, stomach, compared with iodide ([2]; vs iodide) | in vivo loss of radioiodine from the protein [3] | hydrolysis of the active ester [4] |
| --- | --- | --- | --- | --- | --- | --- | --- | --- | --- | --- | --- | --- | --- | --- | --- | --- |
| considerably faster than iodide | 23-56 times lower | O=C(O)c1cncc([125I])c1 [INA, 5-[^125 I]iodonicotinic acid] | relatively inert to dehalogenation in vivo | 0.69 ± 0.40 percentages of the injected do | 0.13 ± 0.13 percentages of the injected do | 0.53 ± 0.41 percentages of the injected do | 0.27 ± 0.09 percentages of the injected do | 0.18 ± 0.03 percentages of the injected do | 0.44 ± 0.21 percentages of the injected do | 0.24 ± 0.10 percentages of the injected do | 1.04 ± 0.24 percentages of the injected do | 0.14 ± 0.01 percentages of the injected do | 0.67 ± 0.19 percentages of the injected do | significantly lower than those observed with iodide | – | – |
| – | – | COC(=N)c1cc(I)c(O)c(I)c1 [Woods] | – | – | – | – | – | – | – | – | – | – | – | – | in vivo loss of radioiodine from the protein | – |
| – | – | O=C(CCc1ccc(O)c([125I])c1)ON1C(=O)CCC1=O [Bolton-Hunter] | – | – | – | – | – | – | – | – | – | – | – | – | – | rapid hydrolysis of the active ester in aqueous solution |
| – | – | I [Iodide, [^131 I]iodide, reference compound] | – | 16.56 ± 8.10 percentages of the injected do | 7.23 ± 1.27 percentages of the injected do | 12.61 ± 7.33 percentages of the injected do | 7.23 ± 1.39 percentages of the injected do | 3.53 ± 0.74 percentages of the injected do | 12.21 ± 3.27 percentages of the injected do | 4.16 ± 1.82 percentages of the injected do | 23.64 ± 4.95 percentages of the injected do | 0.06 ± 0.02 percentages of the injected do | 16.95 ± 4.98 percentages of the injected do | – | – | – |
